What is called melting point is the temperature, or range, at which the solid turns liquid. Consider `COc1ccc(-c2c[nH]c(S)n2)cc1`, for which the melting point turned out to be 204 °C.

On to `OC(CCl)CNc1nc2ccnc(-c3cccc(C(F)(F)F)c3)n2n1` (stereo not drawn), for which the melting point was 141 to 142 °C.

The compound `Oc1nc(-c2ccccc2)cs1` showed a melting point of 194 to 197 °C.

For the compound `COC(=O)C(C(=O)OC)C(=O)C(C)Oc1ccc(Oc2ccc(C(F)(F)F)cc2)cc1` (stereo not drawn), the melting point lay in the range of 40 to 44 °C.

For `COc1ccc2nc(C(=O)Nc3nnn(Cc4ccc(Cl)c(Cl)c4)c3C)sc2c1`, the melting point is 176 °C.

`CN(C)S(=O)(=O)c1ccc(Br)cc1` yielded a melting point of 90 to 92 °C.

Consider `CCc1cc(CCc2nc3ccccc3o2)c(=O)[nH]c1COCc1ccccc1`, for which the melting point fell in the range of 140 to 142 °C.

Turning to `FC(=C(Cl)Cl)c1ccc(-c2ccccc2)s1`, the melting point was in the range of 67 to 68.5 °C.

For the compound `Cn1c(COc2ccc(C=C3SC(=O)NC3=O)cc2)nc2ccc(Sc3cc(C(C)(C)C)c(O)c(C(C)(C)C)c3)cc21`, the melting point is 247 to 249 °C.

Turning to `O=C(NC1CC1)N1CCc2[nH]cnc2C1`, the melting point turned out to be 215 °C.

`O=S(=O)(Nc1cccc(OCc2ccc3ccccc3n2)c1)c1ccc(Cl)cc1` showed a melting point of 157 to 159 °C.

Compound `CC(C)(C)NCC(O)COC(=O)c1ccc(OCc2ccccc2)c(OCc2ccccc2)c1` (stereo not drawn) registered a melting point of 85 to 86 °C.

As for `COc1ccc(OCCCCCc2cc(C)on2)c(Cl)c1`, the melting point fell in the range of 45 to 47 °C.

In the case of `CN1CCN(c2ccccc2C=CC(=O)Nc2ccc(Cl)c(Cl)c2)CC1`, the melting point lay within 192 to 193 °C.

In turn, `Clc1nc2ccccc2c2c1ncn2Cc1ccccn1` showed a melting point of 217 to 220 °C.

On to `Cc1cc(=O)c(-c2ccc(Cl)c(Cl)c2)c(-c2ccc(S(N)(=O)=O)cc2)o1`, for which the melting point worked out at 128 °C.

`O=C(NC=CC1CC2C=CC1C2)n1cc(F)c(=O)[nH]c1=O` (stereo not drawn) gave a melting point of 130 to 132 °C.

With `CS(=O)(=O)c1ccc(/C(=C\C2CCCCC2)C(=O)O)cc1C(F)(F)F`, the melting point lay in the range of 62 to 64 °C.

`Cc1[nH]c(=O)[nH]c1C(=O)c1ccc(N2CCCCC2)cc1`: the melting point fell in the range of 260 to 263 °C.

In the case of `CCOC(=O)c1c(N2CCN(C(=O)c3cccs3)CC2)c2cc(F)cnc2n(Cc2ccccc2)c1=O`, the melting point was 130 °C.

As for `C=CCNc1nc(NCC=C)nc(NCCC2CC(C)(C)NC(C)(C)C2)n1`, the melting point is 74 to 75 °C.

The compound `COC(=O)C1=Cc2cc(Br)ccc2N(C(=O)OC)CC1` had a melting point of 135 to 136 °C.

Consider `COc1ccc(CSc2cccc(C(=O)Nc3ccc(C#N)cc3)c2)cc1`, for which the melting point lay in the range of 167 to 169 °C.

`NC(=O)c1ccc2ccn(C3CCN(CCc4ccc(F)cc4)CC3)c2c1`: the melting point lay within 238 to 240 °C.

For the compound `COc1ccc(C(C)(O)Cn2cc[nH]c2=O)cc1OC1CCCC1` (stereo not drawn), the melting point was determined as 136 °C.

`CN(C)c1ccc(-c2cc(N)n[nH]2)cc1` registered a melting point of 169 to 170 °C.

In turn, `Oc1cc(/C=C/c2ccccn2)n(-c2ccccc2)n1` displayed a melting point of 167 to 168 °C.

As for `CC(=O)Nc1cccc(NC(=O)NC2N=C(c3ccccc3F)c3ccccc3N(CC(=O)N3CC4CCC(CC4)C3)C2=O)c1` (racemic), the melting point is 207 to 215 °C.

`CC(C)C(N)C(=O)NC(Cc1ccccc1)C(O)C(O)C(Cc1ccccc1)NC(=O)C(N)C(C)C` (stereo not drawn) had a melting point of 205 to 207 °C.

In turn, `Cn1ccc(COc2nn3c(-c4ccccc4F)nnc3cc2C2CCC2)n1` returned a melting point of 184 to 186 °C.

With `OC(c1ccccc1)(c1ccc(Oc2ccccc2)cc1)c1ccccn1` (stereo not drawn), the melting point was found to be 114 °C.

For the compound `CCc1ccc2oc(C(=O)Nc3ccc(-c4ccc(S(=O)(=O)NC(C(=O)O)C(C)C)cc4)cc3)c(C)c2c1OC` (stereo not drawn), the melting point fell in the range of 225 to 228 °C.

Compound `CCOC(=O)CCCSC(=S)NCc1ccc(Cl)cc1` had a melting point of 61 to 62 °C.

Compound `COc1nc(NC(=O)Nc2ccccc2OC)nc(N(CCC(=O)O)Cc2ccc(Cl)c(Cl)c2)n1` gave a melting point of 208 to 210 °C.

Take `CCN(CC)C(=O)/C=C/CSc1nc(N)cc(Cl)n1`: the melting point lay in the range of 143 to 145 °C.

Compound `CCc1cccc(CC)c1N(CCCC(=O)O)C(=O)CCN(C(C)=O)c1c(C)cccc1C` showed a melting point of 110 to 111 °C.

As to `CCCNC(=O)Nc1ccc(N)cc1C(=O)NCC1CCN(C(c2ccccc2)c2ccccc2)CC1`, the melting point was in the range of 213 to 214 °C.

`CCN(CC)c1nc(Cl)nc2c(Cl)ncnc12`: the melting point was 113 to 114 °C.

`COc1cc2ncnc(N3CCCc4ccccc43)c2cc1OC` displayed a melting point of 130 to 131 °C.

With `COC(=O)C1=CC=Nc2ccccc2C1`, the melting point is 168 to 173 °C.

On to `CCCCCCCCCCCCCCCC(=O)Oc1c(F)c(F)c(F)c(F)c1F`, for which the melting point was in the range of 42 to 44 °C.

In turn, `O=C(Cc1ccccc1)c1ccc[nH]1` had a melting point of 92 to 94 °C.

For `COc1cc(OC)nc(Oc2ccccc2C=O)n1`, the melting point was found to be 81 °C.

`CC(C)(C)OC(=O)Nc1ccc(-c2cccc(F)c2)cc1N` showed a melting point of 125 to 128 °C.

Compound `N#CCC(O)(c1ccc(Br)cc1)c1ccc(-c2ccc(Br)cc2)cc1` (stereo not drawn) had a melting point of 154 °C.

`COc1ccc(CNc2nnc(NCCCO)c3ccc(C#N)cc23)cc1Cl` returned a melting point of 132 to 135 °C.

The compound `Cc1nc(-n2ccc(OCc3ccccc3)cc2=O)sc1C(=O)NCc1ccccc1` came in with a melting point of 219 to 220 °C.

As to `Cc1c(NC(=O)CCCC(=O)c2ccc(F)cc2)ccc2cc(CN3CCCC3)cnc12`, the melting point lay in the range of 170 to 171 °C.

`CS(=O)(=O)c1ccc(-c2cc(=O)[nH]c(C(F)(F)F)c2-c2ccc(F)cc2)cc1` came in with a melting point of 232 to 242 °C.

Consider `COc1ccc(-c2cc(=O)cc(C(N)=O)o2)cc1`, for which the melting point fell in the range of 303 to 308 °C.

Regarding `CCOS(=O)(=O)c1ccc(-c2ccc(CCl)cc2)cc1`, the melting point was in the range of 112 to 116 °C.

Regarding `O=c1c2c(cc3n1CCCS3(=O)=O)CCCC2`, the melting point is 232 to 233 °C.

In turn, `CNCCCOc1ccc(S(=O)(=O)c2[nH]c3ccccc3c2C(C)C)cc1` had a melting point of 115 °C.

`Clc1ccc2ncc3nc(Br)n(-c4ccccc4Cl)c3c2c1` showed a melting point of 183 to 192 °C.

Take `COC(=O)c1ccc(C(=O)O)c(NC(=O)C(F)(F)F)c1`: the melting point lay within 185 to 186 °C.

In turn, `COc1ccccc1NC(=O)Nc1nc(Oc2ccc3ccccc3c2)nc(N(CCC(=O)O)Cc2ccc(C)cc2)n1` came in with a melting point of 202 to 205 °C.

In the case of `COc1cc(C(=O)NS(=O)(=O)c2ccccc2)cnc1C(=O)O`, the melting point was 176 to 178 °C.

The compound `O=C(O)CCc1ccc(CNC(=O)C2Cc3ccccc3N2S(=O)(=O)c2ccc(-c3cccc(C(F)(F)F)c3)cc2)cc1` (stereo not drawn) gave a melting point of 85 °C.

Turning to `COc1cc2c(cc1O)CN(C(=O)OC(C)(C)C)CC2`, the melting point is 80 to 83 °C.

On to `Nc1cc(O)c(Cn2nc(-c3ccc(C(F)(F)F)cc3)oc2=O)cc1Cl`, for which the melting point was 210 to 212 °C.

Take `CCOC(=O)C(Oc1ccc(C(=O)CBr)cc1)C(=O)OCC`: the melting point was 55 to 58 °C.

For the compound `COc1ccc(Cl)cc1C(=O)NCCc1ccc(-c2ccccc2)c(S(N)(=O)=O)c1`, the melting point lay in the range of 134 to 136 °C.

For the compound `O=c1c(Cl)c(SCc2ccc(Cl)cc2)cnn1-c1ccccc1`, the melting point is 154 to 155 °C.

Take `Cc1cc(C(=O)O)ccc1OCCNC(=O)C1Cc2ccccc2N1S(=O)(=O)c1ccc(-c2ccc(F)cc2)cc1` (stereo not drawn): the melting point is 112 to 118 °C.

As to `Oc1nc2cc(Cl)c3nc[nH]c3c2nc1O`, the melting point is more than 300 °C.

`CCc1c(C(=O)C(N)=O)c2c(OCC(=O)N(C)OCc3ccccc3)cccc2n1Cc1ccccc1` had a melting point of 186 to 188 °C.

With `O=[N+]([O-])c1cccc(C(F)(F)F)c1NCC(O)CO` (stereo not drawn), the melting point is 117 °C.

`CN(C)CCNC(=O)c1cccc2cc[nH]c12` had a melting point of 100 to 102 °C.

Compound `CCCCC(CC)CNC(=O)c1cc(C(C)(C)C)c(O)c(C(C)(C)C)c1` (stereo not drawn) had a melting point of 136 to 140 °C.

For the compound `O=C1C(c2c[nH]c3ccccc23)C(c2c[nH]c3ccccc23)C(=O)N1c1ccccc1` (stereo not drawn), the melting point lay within 260 to 263 °C.

In the case of `CCOc1ccc(-c2nc(C=Cc3ccccc3)cs2)cc1OCC`, the melting point lay in the range of 94 to 95 °C.

Turning to `CCOC(=O)C1=C(C)NC(c2ccc(C)cc2)=C(C(=O)OCC)C1c1cccc([N+](=O)[O-])c1` (stereo not drawn), the melting point was 149 to 150 °C.

The compound `COc1cc(C(=O)N2CCC(CCN3CCC(C(=O)c4nc5ccccc5[nH]4)CC3)(c3ccccc3)C2)cc(OC)c1OC` (stereo not drawn) gave a melting point of 108 to 111 °C.

Compound `Cc1nc2c(s1)CCCC2=O` displayed a melting point of 86 to 87 °C.

`N#Cc1ccc(Nc2nc(NCc3ccco3)nc(Nc3ccc(O)cc3)n2)cc1` came in with a melting point of 62 to 65 °C.

For the compound `CCC(=O)c1ccsc1N(C)C(C)=O`, the melting point lay within 78.5 to 79.5 °C.

For `CCOC(C)c1cc2c(=O)n(NS(C)(=O)=O)c(=O)[nH]c2cc1C(F)(F)F` (stereo not drawn), the melting point lay within 105 to 112 °C.

As to `COC(N)=CC(=NC#N)OC`, the melting point lay in the range of 116 to 121 °C.

`Cc1nc(N2CCN(Cc3ccc(C(F)(F)F)cc3)C2=O)sc1C(=O)NCc1cccnc1`: the melting point lay within 107 to 108 °C.

`C[C@H]1C[C@@](O)(c2cccc(Sc3ccc4c(c3)CCC(=O)N4)c2)CCO1`: the melting point is 180 to 181 °C.

The compound `CC(=O)OCc1nc(C(C)C)c(Sc2cc(Cl)cc(Cl)c2)n1Cc1ccncc1` came in with a melting point of 133 to 135 °C.

Turning to `CC(=O)C1=Nc2cc3c(c(C)c2=C1C)N=c1ccccc1=3`, the melting point is 258 to 260 °C.

As for `CC(=O)N1CCN=C1c1c(Cl)nc(N)nc1Cl`, the melting point was 221 °C.

Turning to `O=C(NCN1CCCCC1)Nc1ccc(-c2cnc(CSCCOc3ccccc3)o2)cc1`, the melting point fell in the range of 84 to 87 °C.

Regarding `COc1cc(CCc2ccc(N)nn2)cc(OC)c1OC`, the melting point lay within 130 to 132 °C.

In turn, `c1cc(Nc2csc3cnccc23)ccn1` displayed a melting point of 236 to 238 °C.

As to `CC(C)(C)C(=O)C(Cl)C(=O)Nc1cc(OC(=O)c2cc(C(C)(C)C)c(O)c(C(C)(C)C)c2)ccc1Cl` (stereo not drawn), the melting point lay within 185 to 187 °C.

With `CC(=O)Nc1c(C(=O)c2cc(Cl)ccn2)[nH]c2cc(Cl)ccc12`, the melting point was 201 to 202 °C.

Values taken from a melting point compilation (Tetko et al.; mined from patent text by program, amines drawn as free bases though some values may be those of a salt).
